{"source": "patent US20080199464A1", "about": "“Combination Therapy with Angiogenesis Inhibitors” (Genentech, Inc., priority 2007, published 2008)", "key": {"[1]": {"tested_on": "LS174T human colon carcinoma xenografts", "assay": "Growth inhibition of established LS174T human colon carcinoma xenografts", "type": "in vivo, athymic nude mice", "conditions": "Day 18 of separate 25-day study; high sunitinib dose 50 mg/kg daily, alone or with B20-4.1", "experimental": "(§1) Volume was calculated using the formula:\n(§2) Tumor Volume(mm^3)=(W2×l)/2\n(§3) Tumors were measured twice weekly using calipers. […] Treatment outcome was based on tumor growth inhibition (TGI).\n(§4) Animals were monitored for regression responses."}, "[2]": {"tested_on": "H1299 human non-small cell lung carcinoma (NSCLC) xenografts", "assay": "Growth inhibition of established H1299 human NSCLC xenografts", "type": "in vivo, athymic nude mice", "conditions": "Day 19, longer term study, alone or with B20-4.1", "experimental": "as §1, §2, §3, §4"}, "[3]": {"tested_on": "786-O renal cell carcinoma (RCC) xenografts", "assay": "Growth inhibition of established 786-O renal cell carcinoma xenografts", "type": "in vivo, athymic nude mice", "conditions": "high sunitinib dose 50 mg/kg daily, alone or with B20-4.1", "experimental": "as §1, §2, §3, §4"}, "[4]": {"tested_on": "Caki-2 human renal cell carcinoma xenografts", "assay": "Growth inhibition of established Caki-2 renal cell carcinoma xenografts", "type": "in vivo, SCID mice", "experimental": "as §1, §2, §3, §4"}}, "data": [{"smiles": "CCN(CC)CCNC(=O)c1c(C)[nH]c(/C=C2\\C(=O)Nc3ccc(F)cc32)c1C", "note": "[sunitinib, N-[2-(diethylamino)ethyl]-5-[(Z)-(5-fluoro-1,2-dihydro-2-oxo-3H-indol-3-ylidine)methyl]-2,4-dimethyl-1H-pyrrole-3-carboxamde]", "values": [{"measurement": "TGI (tumor growth inhibition)", "setting": "[1]", "result": 43, "unit": "%"}, {"measurement": "TGI (tumor growth inhibition)", "setting": "[2]; sunitinib 25 mg/kg daily", "result": 32, "unit": "%"}, {"measurement": "TGI (tumor growth inhibition)", "setting": "[2]; sunitinib 50 mg/kg daily", "result": 62, "unit": "%"}, {"measurement": "TGI (tumor growth inhibition)", "setting": "[3]", "result": 80, "unit": "%"}, {"measurement": "TGI (tumor growth inhibition)", "setting": "[4]; Day 29, high dose (50 mg/kg) sunitinib, alone or with B20-4.1", "result": 62, "unit": "%"}, {"measurement": "Day 29 mean tumor volumes (MTVs)", "setting": "[4]; low dose (25 mg/kg) sunitinib monotherapy", "result": 352, "unit": "mm^3"}]}]}
